{
  "source": "patent US20100105688A1",
  "about": "“PHARMACEUTICAL COMPOSITIONS COMPRISING 3,5-DIAMINO-6-(2,3-DICHLOPHENYL)-1,2,4-TRIAZINE OR R(-)-2,4-DIAMINO-5-(2,3-DICHLOROPHENYL)-6-FLUOROMETHYL PYRIMIDINE AND AN NK1” (GLAXO GROUP LIMITED, priority 2007, published 2010)",
  "key": {"Male CD rats": {"system": "Male CD rats", "test": "Rat MEST model (seizure threshold, CC50)", "type": "in vivo", "procedure": "This work was conducted in compliance with the Home Office Guidance on the operation of the Animals (Scientific Procedures) Act 1986 and GlaxoSmithKline ethical standards. Male CD rats (100-145 g) were supplied by Charles River, UK. Animals were group housed (6 animal per cage) with free access to food (Standard rodent chow; Harlan, UK) and water under a 12 h light/dark cycle (lights on at 0700 h). A period of at least one week between arrival at GSK and the study was allowed in all cases.\nAnimals were administered a test compound at the appropriate dose, route and pre-treatment time and returned to their home cage. Testing occurred in a separate room from that used for housing. Testing involved determining the threshold for tonic hindlimb extensor seizures using a Hugo Sachs Electronik stimulator which delivers a constant current of 0.3 second duration, 50 Hz, sinewave form, fully adjustable between 1 and 300 mA. Stimuli were delivered via corneal electrodes (Stean T O, Atkins A R, Heidbreder C A, Quinn L P, Trail B K, Upton N. (2005) Br J. Pharmacol. 144(5):628-35). Seizure threshold was determined using the ‘up and down’ method of Kimball et al. (1957)(Kimball A W, Burnett W T Jr, Doherty D G. (1957) Radiat Res. 7(1):1-12). The first animal tested in each group was stimulated with a current that might be expected to be close to the threshold for induction of a seizure. If a tonic seizure was not induced, then next animal in the group received a stimulus 5 mA higher. If a tonic seizure was induced, then the next animal received a stimulus 5 mA lower. This is repeated for all animals within the control (vehicle) group. In the case of groups treated with a sodium channel blocker steps of 10 to 30 mA were used.\nAll doses were calculated as base. ENa9 and ENa13 were dosed via the subcutaneous (s.c.) route at 1 ml/kg in a 2% v/v DMSO/saline vehicle 30 minutes prior to test. ENa7 and ENa14 were dosed orally (p.o.) in a 1% w/v methylcellulose/water vehicle at 2 ml/kg, 60 minutes before test. Compound ENK6 was dosed with via the intraperitoneal (i.p.) route 60 minutes before the test or via the s.c. route 15 minutes before test. In both cases ENK6 was dissolved in saline.\nInduction of seizure is measured as an all-or-nothing effect scored as either present (+) or absent (0) for each animal. The data for each treatment group were recorded as the number of +'s and 0's at each current level employed and this information was then used to calculate the CC50 value (current required for 50% of animals to show seizure behaviour)+standard error of the mean according to the method of Kimball et al. (1957). Drug effects were calculated as the % change in CC50. Significant differences between drug-treated animals and appropriate vehicle treated groups were assessed according to the methods of Litchfield and Wilcoxon (1949). The statistical significance of differences between sodium channel blocker alone or in combination with ENK6 was assessed using a Student's t test."}, "rats": {"system": "rats", "test": "FCA (Freunds Complete Adjuvant) model of inflammatory hypersensitivity to pain (weight bearing)", "type": "in vivo, rat", "procedure": "• Naïve weight bearing readings were taken. The hypersensitivity to pain was measured using the Rat incapacitance tester (Linton instruments). This instrument is serviced once a year and should be regularly calibrated • All rats then received an intraplantar injection of 100 ul of FCA (Freund's complete adjuvant) into the left hind paw. The FCA was sonicated for 15 minutes prior to use. • Approximately 23 hrs after administration of the FCA, pre-dose weight bearing readings were taken. All animals were then ranked and randomised for dosing according to their FCA window (predose difference in grams−naïve difference in grams). […] Celebrex 10 mg/kg p.o. (positive control) as appropriate according to ranking and randomisation. • Animals were assessed in the weight bearing apparatus 1 hour post dose. • The study was blind and randomised by FCA window using the Latin square method. • % reversals were calculated by using the naïve, pre-dose and post dose values as follows: % Reversal=[(Pre-dose−Post-dose)/(Pre-dose−Naïve)]×100 • Graphs and ED50 were calculated where appropriate using Prism4. • Statistical analysis was carried out using ANOVA followed by calculating the least square means using the statistical package Statistica 6.1 • From the dose response curves the ED20 was determined for the combination study • Naïve weight bearing readings were taken. The hypersensitivity to pain was measured using the Rat incapacitance tester (Linton instruments). This instrument is serviced once a year and should be regularly calibrated • All rats then received an intraplantar injection of 100 ul of FCA (Freund's complete adjuvant) into the left hind paw. The FCA was sonicated for 15 minutes prior to use. • Approximately 23 hrs after administration of the FCA, pre-dose weight bearing readings were taken. All animals were then ranked and randomised for dosing according to their FCA window (predose difference in grams−naïve difference in grams). […] See table 5 for details of the groups • Animals were assessed in the weight bearing apparatus 1 hour post dose. • The study was blind and randomised by FCA window using the Latin square method. • % reversals were calculated by using the naïve, pre-dose and post dose values as follows: % Reversal=[(Pre-dose−Post-dose)/(Pre-dose−Naïve)]×100 • Statistical analysis was carried out using ANOVA followed by calculating the least square means using the statistical package Statistica 6.1 • ED50 and ED20 values and graphs were calculated using prism5 • Naïve weight bearing readings were taken. The hypersensitivity to pain was measured using the Rat incapacitance tester (Linton instruments). This instrument is serviced once a year and should be regularly calibrated • All rats then received an intraplantar injection of 100 ul of FCA (Freund's complete adjuvant) into the left hind paw. The FCA was sonicated for 15 minutes prior to use. • Approximately 23 hrs after administration of the FCA, pre-dose weight bearing readings were taken. All animals were then ranked and randomised for dosing according to their FCA window (predose difference in grams—naïve difference in grams). Rats with FCA window less than 30 g were excluded from the study. • Animals were then dosed with the following in a fixed dose ratio of 1.25:1 according to ranking and randomisation. (Table 6) […] Graphs and ED50 were calculated where appropriate using Prism5 • Statistical analysis was carried out using ANOVA followed by calculating the least square means using the statistical package Statistica 6.1"}},
  "data": [
    {"smiles": "Nc1nnc(-c2cccc(Cl)c2Cl)c(N)n1", "note": "[ENa7, 3,5-diamino-6-(2,3-dichlorophenyl)-1,2,4-triazine, reference compound]", "values": [
      {"measurement": "increase in CC50 (mA)", "setting": "Male CD rats; sodium channel blocker 1 mg/kg p.o. in the presence of ENK6 10 mg/kg s.c. (first experiment)", "result": 61, "unit": "%"},
      {"measurement": "increase in CC50 (mA)", "setting": "Male CD rats; sodium channel blocker 1 mg/kg p.o. in the presence of ENK6 30 mg/kg s.c.", "result": 145, "unit": "%"},
      {"measurement": "increase in CC50 (mA)", "setting": "Male CD rats; sodium channel blocker 3 mg/kg p.o. in the presence of ENK6 30 mg/kg s.c. (second experiment)", "result": 233, "unit": "%"},
      {"measurement": "effect on seizure threshold", "setting": "Male CD rats; sodium channel blocker alone, 1 mg/kg p.o., 60 minutes before the test", "result": "little or no increase in seizure threshold"},
      {"measurement": "increase in seizure threshold", "setting": "Male CD rats; sodium channel blocker alone, 3 mg/kg p.o., 60 minutes before the test, two independent experiments", "result": "128-205%"},
      {"measurement": "ED50", "setting": "rats; Rattus norvegicus, po, compound alone, 0.1-3.0 mg/kg p.o. as printed, 1 hour post dose, range in brackets as printed, read-out: ED50, reversal of the FCA induced hypersensitivity", "result": 0.35, "unit": "mg/kg"},
      {"measurement": "reversal of the FCA induced hypersensitivity", "setting": "rats; compound alone, 0.1-3.0 mg/kg, 1 hour post dose", "result": "dose related reversal"},
      {"measurement": "effect on the FCA induced hypersensitivity", "setting": "rats; each compound alone at its ED20 dose (ENa7 0.1 mg/kg p.o.; ENK6 0.08 mg/kg s.c.)", "result": "no significant effect"}
    ]}
  ]
}
